Measurements taken from PMC7809101, “Fetal bovine serum albumin inhibits antimicrobial peptide activity and binds drug only in complex with α1-antitrypsin” (Scientific Reports, 2021).

Columns and labels:
bovine serum albumin = tested on: bovine serum albumin; parameters: method as in PMID 24456893, PMID 18779351, PMID 17569519; conditions: ref [12],[16],[17]; cited from earlier work
Experimental: (§1) Albumin is the most abundant protein in human serum (HSA, 45 mg/ml), followed in descending order by α1-antitrypsin (A1AT, 3.5 mg/ml), transferrin (2.5 mg/ml), α2-macroglobulin (2.5 mg/ml), haptoglobulin (1.8 mg/ml), low-density lipoprotein (LDL, 1.2 mg/ml), α1-acid glycoprotein (AGP, 0.8 mg/ml) and high-density lipoprotein (HDL, 0.6 mg/ml)[11]. These proteins are involved in the transportation of fatty acids, cholesterols, toxins and drugs in the blood stream.

human serum albumin = conditions: cited from earlier work
[1] = target: T1, protein D (albumin and α1-antitrypsin complex) (Bos taurus, UniProt P02769+P34955); experiment: Fluorescence emission spectrum (blue shift), protein D; format: binding, bovine; conditions: protein D 0.75 μM, PC buffer, 25 °C, 30 min; excitation 285 nm, emission 300–450 nm; reagent up to: sarkosyl 320, TP4-A12I,A15I 120, ibuprofen 24, phenytoin 20 μM
T1 construct: The active components were further purified by fast performance liquid chromatography (FPLC) Mono Q and S12 column chromatography from the 70% saturated fraction; from tissue; host or cells: fetal bovine serum (70% ammonium sulfate fraction, FPLC Mono Q and Superose 12)
T1 sequence (P02769 25-607, one chain of several): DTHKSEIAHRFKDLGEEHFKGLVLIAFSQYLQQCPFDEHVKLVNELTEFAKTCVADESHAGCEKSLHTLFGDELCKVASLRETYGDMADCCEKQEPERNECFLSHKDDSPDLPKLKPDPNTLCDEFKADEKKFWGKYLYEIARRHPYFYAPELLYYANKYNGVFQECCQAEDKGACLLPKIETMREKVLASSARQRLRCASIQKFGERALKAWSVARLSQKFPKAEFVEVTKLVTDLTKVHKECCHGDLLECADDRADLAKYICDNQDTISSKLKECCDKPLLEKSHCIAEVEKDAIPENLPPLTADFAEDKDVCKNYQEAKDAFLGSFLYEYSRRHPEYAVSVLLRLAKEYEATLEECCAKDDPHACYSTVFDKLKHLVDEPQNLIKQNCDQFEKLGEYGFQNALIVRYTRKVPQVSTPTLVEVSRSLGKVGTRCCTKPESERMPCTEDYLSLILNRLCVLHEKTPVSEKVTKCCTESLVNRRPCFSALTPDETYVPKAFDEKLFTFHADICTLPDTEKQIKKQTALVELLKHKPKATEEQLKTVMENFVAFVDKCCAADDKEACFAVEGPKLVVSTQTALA
Experimental: (§2) The mixtures were excited by 285 nm and its emission spectra were recorded between 300 and 450 nm using a temperature-controlled fluorimeter (FP8500, Jasco, Japan)[13].

protein A (albumin) = protein A (albumin) (Bos taurus, UniProt P02769); experiment: Fluorescence emission spectrum (blue shift), protein A; format: binding, bovine; parameters: The homogeneities of collected protein A (albumin), protein B (α1-antitrypsin), protein C (serotransferrin) and protein D complex; from tissue; host or cells: fetal bovine serum (70% ammonium sulfate fraction, FPLC Mono Q); conditions: protein A 0.75 μM, PC buffer, 25 °C, 30 min; excitation 285 nm, emission 300–450 nm; reagent up to: sarkosyl 320, TP4-A12I,A15I 120, ibuprofen 24, phenytoin 20 μM
Sequence of protein A (albumin) (P02769 25-607): as the sequence (P02769 25-607, one chain of several) above
Experimental: as §2

[2] = tested on: Escherichia coli K-12 (MG1655); experiment: Antimicrobial (bactericidal) activity against E. coli, effect of serum or serum proteins; format: cell-based; conditions: 5% (v/v) FBS in PBS, 37 °C; remaining viable cells (cfu)
Experimental: The Gram-negative bacteria Escherichia coli K-12 (MG1655) was cultured and plated in/on Luria–Bertani broth/agar plate (Merck Millipore, Darmstadt, Germany). The Gram-positive Staphylococcus aureus (ATCC 6538P) was cultured and plated in tryptic soy broth/agar (BD, MD, USA). The fungus Candida albicans (ATCC 14,053) was cultured and plated in YM broth/agar (BD, MD, USA). The bacteria were grown overnight, washed, and diluted 1:2000 in phosphate buffered saline (PBS), pH 7.5 or DMEM (Life Biotech, California, USA), pH 7.4. Bacteria (ca. 1 × 10^6 colony-forming units, cfu) were mixed with antimicrobial peptides (AMP) in 100 μl PBS and incubated at 37 °C (for bacteria) and at 30 °C (for fungus). Serial dilutions of each AMP-treated bacteria in PBS/DMEM supplemented with FBS were prepared and plated for the determination of remaining viable cells (expressed as cfu). At least three independent experiments were performed for each assay to determine the average value with standard deviation. MBC was defined as the lowest AMP concentration that kills 99.9% of the original inoculum.

fetal bovine serum (FBS) = experiment: Band shift of AMPs by fetal bovine serum; format: binding; conditions: 10–40% FBS; AMP 4 μg; PC buffer, room temperature, 30 min; horizontal native 8% PAGE
Experimental: (§3) Various AMPs (4 μg each) were incubated with fetal bovine serum (FBS) components at room temperature in 10 μl PC buffer for 30 min and subjected to horizontal native 8% PAGE, pH8.0 or pH8.8, and Coomassie Blue staining.

[3] = target: T1, protein D (albumin and α1-antitrypsin complex); experiment: Band shift of AMPs by protein D; format: binding, bovine; conditions: AMP 4 μg; protein 10 μg (Suppl. Fig. 3a); PC buffer, room temperature, 30 min; 8% horizontal native PAGE
[4] = target: T2, protein B (α1-antitrypsin) (Bos taurus, UniProt P34955); experiment: Band shift of AMPs by protein B; format: binding, bovine; parameters: The homogeneities of collected protein A (albumin), protein B (α1-antitrypsin), protein C (serotransferrin) and protein D complex; from tissue; host or cells: fetal bovine serum (70% ammonium sulfate fraction, FPLC Mono Q); conditions: AMP 4 μg; protein 10 μg (Suppl. Fig. 3a); PC buffer, room temperature, 30 min; 8% horizontal native PAGE
T2 sequence (P34955 25-416): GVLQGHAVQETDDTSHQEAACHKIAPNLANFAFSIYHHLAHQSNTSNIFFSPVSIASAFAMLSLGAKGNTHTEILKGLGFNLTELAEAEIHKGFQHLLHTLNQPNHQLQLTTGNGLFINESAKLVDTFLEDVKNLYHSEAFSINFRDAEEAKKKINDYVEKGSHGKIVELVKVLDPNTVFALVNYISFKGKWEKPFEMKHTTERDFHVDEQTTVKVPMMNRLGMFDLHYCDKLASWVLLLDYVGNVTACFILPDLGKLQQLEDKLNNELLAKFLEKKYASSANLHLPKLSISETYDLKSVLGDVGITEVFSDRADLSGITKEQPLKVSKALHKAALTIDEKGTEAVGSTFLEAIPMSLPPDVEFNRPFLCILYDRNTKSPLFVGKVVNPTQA
Experimental: as §3

human serum components = conditions: cited from earlier work
Experimental: as §1

trypsin = experiment: Antitrypsin activity analysis; format: biochemical; conditions: trypsin 2 ng (0.2 μg/ml) pre-incubated 30 min, PC buffer, 37 °C, 15% reduced SDS-PAGE; for inhibition of proteolytic activity of trypsin toward SAAP159: substrate SAAP159 4 μg (0.4 mg/ml); for inhibition of proteolytic activity of trypsin toward TP4: substrate TP4 2 μg (0.2 mg/ml)
Experimental: The inhibitions of trypsin’s proteolytic activity by serum components on peptides TP4 and SAAP159 were determined as follows. Freshly diluted trypsin (2 ng; 0.2 μg/ml) was pre-incubated with various concentrations of serum components in PC buffer for 30 min before the mixture was added to TP4 (2 μg; 0.2 mg/ml) or SAAP159 (4 μg/; 0.4 mg/ml) peptides in 10 μl PC buffer at 37 °C for 30 min. The digested peptide fragments were analyzed by 15% reduced SDS-PAGE and Coomassie Blue staining.

[5] = target: biotinylated TP4-A12I,A15I (tilapia); experiment: BLI; Octet RED384; biotinylated TP4-A12I,A15I (10 μM) immobilised on a Streptavidin biosensor; serial dilutions of serum components in PC buffer as analyte; global fit (1:1)

CO/N=C(\C(=O)N[C@@H]1C(=O)N2C(C(=O)O)=C(CSc3nc(=O)c(=O)[nH]n3C)CS[C@H]12)c1csc(N)n1 [ceftriaxone]
bound and inhibited by bovine serum albumin (bovine serum albumin): bound and inhibited | bound and inhibited by human serum albumin (human serum albumin; ref [12],[16],[17]): bound and inhibited

COc1c(N2C[C@@H]3CCCN[C@@H]3C2)c(F)cc2c(=O)c(C(=O)O)cn(C3CC3)c12 [moxifloxacin]
bound and inhibited by bovine serum albumin (bovine serum albumin): bound and inhibited

CCCCCCCCCCCC(=O)N(C)CC(=O)[O-].[Na+] [sarkosyl]
blue shift of fluorescence emission spectrum, protein D [1]: caused blue shifts | blue shift of fluorescence emission spectrum, protein A (protein A (albumin)): caused blue shifts

CC(=O)CC(c1ccccc1)c1c(O)c2ccccc2oc1=O (stereo not drawn) [warfarin]
bound to site I of human albumin (human serum albumin; site I, ref [8]–[10]): More than 90%

Iseganan [reference compound]
effect of FBS on antimicrobial activity against E. coli [2]: serum-mediated repression | mobility of AMP in band shift assay with FBS (fetal bovine serum (FBS)): retarded | binding to protein D (band shift) [3]: also bound by protein D | binding to protein B (band shift) [4]: not by protein A and protein B

Polymyxin B
effect of FBS on antimicrobial activity against E. coli [2]: not

daptomycin
bound to human serum components (human serum components): 90-94% | order of binding to human serum components (human serum components): albumin > > α1-antitrypsin > low-density lipoprotein > high-density lipoprotein > transferrin | bound by human serum albumin (human serum albumin): 90-94%

protein A: bovine serum albumin, free form, purified from fetal bovine serum
inhibition of proteolytic activity of trypsin toward SAAP159 (trypsin): only minimally affected | inhibition of proteolytic activity of trypsin toward TP4 (trypsin): only minimally affected

protein D complex (albumin and α1-antitrypsin) (from UniProt P02769 25-607; P34955 25-416)
Kd [5]: 21.7 nM

protein D: albumin and α1-antitrypsin complex linked by disulfide bond, from fetal bovine serum
inhibition of proteolytic activity of trypsin toward SAAP159 (trypsin): repressed | inhibition of proteolytic activity of trypsin toward TP4 (trypsin): repressed

B1: protein B: bovine α1-antitrypsin, free form, purified from fetal bovine serum (protein)
chain: T2 sequence (P34955 25-416)
inhibition of proteolytic activity of trypsin toward SAAP159 (trypsin): repressed | inhibition of proteolytic activity of trypsin toward TP4 (trypsin): repressed
